According to patent US20050158818A1, “Cephalosporin C acylases” (ANTIBIOTICOS S.p.A., priority 2004, published 2005):
Where a chain is given by its changes, count along the chain named. Names and notes keep the numbering of the source. Like-named read-outs stand apart in the source and are kept apart here.

Legend:
[1] = test system: HisVAC cephalosporin C acylase, wild-type (designed on Pseudomonas N176 acylase, Phe270, C-terminal LEHHHHHH), Seq. ID #1; assay: Hydrolysis kinetics of wild-type HisVAC acylase; assay type: biochemical; settings: for Km: 0.1 M phosphate; for Km / Vmax: pH 8.0, 37° C.; for Vmax: converted in units at 25° C.; for Inhibition after: substrate concentration after which inhibition occurs
Experimental: Said sequence was introduced in order to make the subsequent chromatographic purification easier, using pET24 plasmid as the cloning and expression vector. This plasmid is resistant to kanamycin and is able to insert a “His-Tag sequence” at the C-terminus of the protein and a “T7-Tag sequence” at the N-terminus.
(§1) Kinetics parameters of the mutants and HisVAC acylase were determined measuring the hydrolysis of cephalosporin C or glutaryl 7-ACA in 0.1 M phosphate buffer solution, pH 8.0 at 37° C. (then converted in units at 25° C.). The amount of 7-ACA is determined spectrophotometrically, using a standard curve, measuring the yellow intensity at 415 nm (Schiff base), resulting upon reaction with p-dimethylaminobenzaldehyde, using modified Bulasingham method (Biochem. Biophys. Acta 276, 250, 1972).
(§2) One acylase unit is the amount of enzyme (in solution or immobilized) which, under the assay conditions, produces one micromole of 7-ACA/minute.

[2] = test system: HisVAC cephalosporin C acylase (Pseudomonas N176 derived, parent Seq. ID #1) variant A215E; assay: Hydrolysis kinetics of mutant A215E; assay type: biochemical; settings: for Km: 0.1 M phosphate; for Km / Vmax: pH 8.0, 37° C.; for Vmax: converted in units at 25° C.
Experimental: (§3) 1. Site-Directed Mutagenesis
as §1, §2

[3] = test system: HisVAC cephalosporin C acylase (Pseudomonas N176 derived, parent Seq. ID #1) variant A215V; assay: Hydrolysis kinetics of mutant A215V; assay type: biochemical; settings: for Km: 0.1 M phosphate; for Km / Vmax: pH 8.0, 37° C.; for Vmax: converted in units at 25° C.; for Inhibition after: substrate concentration after which inhibition occurs
Experimental: as §3, §1, §2

[4] = test system: HisVAC cephalosporin C acylase (Pseudomonas N176 derived, parent Seq. ID #1) variant H296N; assay: Hydrolysis kinetics of mutant H296N; assay type: biochemical; settings: for Km: 0.1 M phosphate; for Km / Vmax: pH 8.0, 37° C.; for Vmax: converted in units at 25° C.; for Inhibition after: substrate concentration after which inhibition occurs
Experimental: as §3, §1, §2

[5] = test system: HisVAC cephalosporin C acylase (Pseudomonas N176 derived, parent Seq. ID #1) variant H296S; assay: Hydrolysis kinetics of mutant H296S; assay type: biochemical; settings: for Km: 0.1 M phosphate; for Km / Vmax: pH 8.0, 37° C.; for Vmax: converted in units at 25° C.; for Inhibition after: substrate concentration after which inhibition occurs
Experimental: as §3, §1, §2

[6] = test system: HisVAC cephalosporin C acylase (Pseudomonas N176 derived, parent Seq. ID #1) variant A215L; assay: Hydrolysis kinetics of mutant A215L; assay type: biochemical; settings: for Km: 0.1 M phosphate; for Km / Vmax: pH 8.0, 37° C.; for Vmax: converted in units at 25° C.; for Inhibition after: substrate concentration after which inhibition occurs
Experimental: as §3, §1, §2

[7] = test system: HisVAC cephalosporin C acylase (Pseudomonas N176 derived, parent Seq. ID #1) variant H296T; assay: Hydrolysis kinetics of mutant H296T; assay type: biochemical; settings: for Km: 0.1 M phosphate; for Km / Vmax: pH 8.0, 37° C.; for Vmax: converted in units at 25° C.; for Inhibition after: substrate concentration after which inhibition occurs
Experimental: as §3, §1, §2

[8] = test system: HisVAC cephalosporin C acylase (Pseudomonas N176 derived, parent Seq. ID #1) variant A215Y; assay: Hydrolysis kinetics of mutant A215Y; assay type: biochemical; settings: for Km: 0.1 M phosphate; for Km / Vmax: pH 8.0, 37° C.; for Vmax: converted in units at 25° C.; for Inhibition after: substrate concentration after which inhibition occurs
Experimental: as §3, §1, §2

[9] = test system: HisVAC cephalosporin C acylase (Pseudomonas N176 derived, parent Seq. ID #1) variant A215F; assay: Hydrolysis kinetics of mutant A215F; assay type: biochemical; settings: for Km: 0.1 M phosphate; for Km / Vmax: pH 8.0, 37° C.; for Vmax: converted in units at 25° C.
Experimental: as §3, §1, §2

[10] = molecular target: HisVAC cephalosporin C acylase (Pseudomonas N176 derived, parent Seq. ID #1) variant A215F; assay: Product inhibition of mutant A215F; assay type: biochemical
Experimental: as §1

[11] = molecular target: HisVAC cephalosporin C acylase (Pseudomonas N176 derived, parent Seq. ID #1) variant A215Y; assay: Product inhibition of mutant A215Y; assay type: biochemical
Experimental: as §1

[12] = Stability of the enzyme (pH, temperature); assay type: physicochemical; settings: temperatures higher than 25° C.
Experimental: Purified HisVAC is stable after 120 min incubation at pH ranging from 5 to 9. Enzymatic activity increases as a function of the pH of the reaction solution, in the range 5-10, reaching the highest value at 40° C. after 30 minutes reaction.

[13] = Acylase kinetics, hydrolysis of glutaryl 7-ACA (7-ACA determined at 415 nm with p-dimethylaminobenzaldehyde); assay type: biochemical; settings: substrate Gl-7-ACA; for Km: 0.1 M phosphate buffer pH 8.0, 37° C.; for Vmax (U/mg): 0.1 M phosphate buffer pH 8.0, 37° C. (converted in units at 25° C.); for Inhibition after: substrate concentration after which inhibition is seen
Experimental: as §1, §2

[14] = Acylase kinetics, hydrolysis of cephalosporin C (7-ACA determined at 415 nm with p-dimethylaminobenzaldehyde); assay type: biochemical; settings: substrate Cef C; for Km: 0.1 M phosphate buffer pH 8.0, 37° C.; for Vmax (U/mg): 0.1 M phosphate buffer pH 8.0, 37° C. (converted in units at 25° C.); for Inhibition after: substrate concentration after which inhibition is seen
Experimental: as §1, §2

[15] = substrate Gl-7-ACA, read-out: Ki
[16] = substrate concentration after which inhibition occurs

In the case of CC(=O)OCC1=C(C(=O)O)N2C(=O)[C@@H](NC(=O)CCC[C@@H](N)C(=O)O)[C@H]2SC1 [Cef C, cephalosporin C], the Km [1] is reported as 8.2 mM, the Vmax [1] is reported as 0.23 U/mg and the Inhibition after [1] is reported as 50 mM. For the same molecule, the Km [2] was 3.2 mM, the Vmax [2] was 0.16 U/mg and the Km [3] was 8.3 mM. The Vmax [3] was 0.78 U/mg, the Inhibition after [3] was 50 mM and the Km [4] was 5.2 mM. It also gave a Vmax [4] of 0.27 U/mg, an Inhibition after [4] of 50 mM and a Km [5] of 7.7 mM. The Vmax [5] was 0.63 U/mg, the Inhibition after [5] was 25 mM and the Km [6] was 9.5 mM. It also gave a Vmax [6] of 0.75 U/mg, an Inhibition after [6] of 12.5 mM and a Km [7] of 4.8 mM. It also gave a Vmax [7] of 0.2 U/mg, an Inhibition after [7] of 60 mM and a Km [8] of 6.9 mM. It also gave a Vmax [8] of 1.8 U/mg, an Inhibition after [8] of 25 mM and a Km [9] of 7.7 mM. The Vmax [9] was 0.21 U/mg.

Molecule CC(=O)OCC1=C(C(=O)O)N2C(=O)[C@@H](N)[C@H]2SC1 [7-ACA, 7-amino-cephalosporanic acid] has a Ki ([10]; substrate Gl-7-ACA) of 4.7 mM and a Ki [11, 15] of 11.3 mM.

With N[C@H](CCCC(=O)O)C(=O)O [α-Aminoadipic] the Ki ([10]; substrate Cef C) was 85.2 mM and the Ki ([11]; substrate Cef C) was “no inhibition”.

O=C(O)CCCC(=O)O [Glutaric Acid] gave a Ki ([10]; substrate Gl-7-ACA) of 2.1 mM and a Ki [11, 15] of 6.1 mM.

In the case of CC(=O)OCC1=C(C(=O)O)N2C(=O)[C@@H](NC(=O)CCCC(=O)O)[C@H]2SC1 [Gl-7-ACA, glutaryl-7-ACA], the Km [1] is reported as 1.6 mM, the Vmax [1] is reported as 24.2 U/mg and the Inhibition after [1] is reported as 12.5 mM. The Km [2] was 1 mM, the Vmax [2] was 2 U/mg and the Inhibition after [2, 16] was 25 mM. The Km [3] was 1.2 mM, the Vmax [3] was 12.5 U/mg and the Inhibition after [3] was 12.5 mM. The Km [4] was 2.8 mM, the Vmax [4] was 4.3 U/mg and the Inhibition after [4] was 50 mM. It also gave a Km [5] of 0.7 mM, a Vmax [5] of 2.0 U/mg and an Inhibition after [5] of 25 mM. For the same molecule, the Km [6] was 1.7 mM, the Vmax [6] was 6.2 U/mg and the Inhibition after [6] was 12.5 mM. It also gave a Km [7] of 2 mM, a Vmax [7] of 0.67 U/mg and an Inhibition after [7] of 50 mM. For the same molecule, the Km [8] was 1.7 mM, the Vmax [8] was 16 U/mg and the Inhibition after [8] was 12.5 mM. For the same molecule, the Km [9] was 0.85 mM, the Vmax [9] was 3.3 U/mg and the Inhibition after [9, 16] was 50 mM.

B1: A215Y: HisVAC mutant, alanine 215 replaced with Tyr (protein)
chain: MTMAANTDRAVLQAALPPLSGSLPIPGLSASVRVRRDAWGIPHIKASGEADAYRALGFVHSQDRLFQMELTRRKALGRAAEWLGAEAAEADILVRRLGMEKVCRRDFEALGVEAKDMLRAYVAGVNAFLASGAPLPVEYGLLGAEPEPWEPWHSIAVMRRLGLLMGSVWFKLWRMLALPVVGAANALKLRYDDGGRDLLCIPPGAEADRLEADLYTLRPAVDALLKAMGGDASDAAGGGSNNWAVAPGRTATGRPILAGDPHRVFEIPGFYAQHHLACDRFDMIGLTVPGVPGFPHFAHNGKVAYCVTHAFMDIHDLYLEQFAGEGRTARFGNDFEPVAWSRDRIAVRGGADREFDIVETRHGPVIAGDPRDGAALTLRSVQFAETDLSFDCLTRMPGASTVAQLYDATRGWGLIDHNLVAGDVAGSIGHLVRARVPSRPRENGWLPVPGWSGEHEWRGWIPHEAMPRVIDPPGGIIVTANNRVVADDHPDYLCTDCHPPYRAERIMKRLVANPAFAVDDAAAIHADTLSPHVGLLRRRLEALGARDDSAAEGLRQMLVAWDGRMDAASEVASAYNAFRRALTRLVTDRSGLEQAISHPFAAVAPGVSPQGQVWWAVPTLLRDDDAGMLKGWSWDQALSEALSVASQNLTGRSWGEEHRPRFTHPLATQFPAWAGLLNPASRPIGGDGDTVLANGLVPSAGPQATYGALSRYVFDVGNWDNSRWVVFHGASGHPASAHYADQNAPWSDCAMVPMLYSWDRIAAEAVTSQELVPALEHHHHHH
For B1, the Thermal stability [12] was “more stable”.

B2: H417Y: HisVAC mutant, histidine 417 replaced with Tyr (protein)
chain: B1 chain with Y215A, H417Y
In the case of B2, the Km [13] is reported as 4.3 mM, the “Vmax (U/mg)” value [13] is reported as 14.8 U/mg and the Km [14] is reported as 12.3 mM. For the same molecule, the “Vmax (U/mg)” value [14] was 0.05 U/mg and the Inhibition after [14] was 50 mM.

B3: D416Y: HisVAC mutant, aspartic acid 416 replaced with Tyr (protein)
chain: B1 chain with Y215A, D416Y
For B3, the Km [13] was 1.75 mM, the “Vmax (U/mg)” value [13] was 4.9 U/mg and the Inhibition after [13] was 25 mM. The Km [14] was 7.2 mM and the “Vmax (U/mg)” value [14] was 0.66 U/mg.

B4: D416Y-H417Y: HisVAC double mutant, aspartic acid 416 and histidine 417 replaced with Tyr (protein)
chain: B1 chain with Y215A, D416Y, H417Y
For B4, the Km [13] was 9 mM, the “Vmax (U/mg)” value [13] was 1.2 U/mg and the Inhibition after [13] was 12.5 mM. The Km [14] was 13.1 mM, the “Vmax (U/mg)” value [14] was 4.2 U/mg and the Inhibition after [14] was 50 mM.

B5: H296F: HisVAC mutant, histidine 296 replaced with Phe (protein)
chain: B1 chain with Y215A, H296F
In the case of B5, the Km [13] is reported as 1.9 mM, the “Vmax (U/mg)” value [13] is reported as 1.7 U/mg and the Inhibition after [13] is reported as 50 mM. The Km [14] was 4.1 mM, the “Vmax (U/mg)” value [14] was 0.05 U/mg and the Inhibition after [14] was 60 mM.

B6: A215Y-H296S: HisVAC double mutant, alanine 215 replaced with Tyr and histidine 296 replaced with Ser (protein)
chain: B1 chain with H296S
For B6, the Km [13] was 4 mM, the “Vmax (U/mg)” value [13] was 2.2 U/mg and the Inhibition after [13] was 25 mM. For the same molecule, the Km [14] was 10 mM, the “Vmax (U/mg)” value [14] was 0.66 U/mg and the Inhibition after [14] was 40 mM.
